From patent US9073917B2, “Anti-cancer compound and pharmaceutical composition containing the same” (SANOFI, priority 2009, dated 2015)
Read-outs that look alike come from different tables or passages of the source.

What was measured:
[1] = Clearance in the presence of human hepatocytes; format: in vitro ADME; conditions: 0.5 or 5 μM, 24 hours, average over different preparations of hepatocytes
Experimental: The LC/MS-MS analysis is performed on a QTRAP API4000 mass spectrometer (Sciex) equipped with an 1100 series chromatography system (Agilent) and a Pal CTC automatic injector. The data are acquired and analysed using Analyst 1.4.1 software. The samples are separated on a 3 μm C18 Polaris column, eluted at a flow rate of 0.7 ml/min with a gradient from acetonitrile (solvent B) into water containing 0.1% formic acid (solvent A). The elution programme is composed of the gradient from 20 to 90% of solvent B in 2 minutes, an isocratic stage at 90% of solvent B, for 0.9 minute, and a return to the initial conditions in 0.1 minute.

PDE3A = PDE3A (Homo sapiens (Human), UniProt Q14432); assay: Effect on the activity of the enzyme PDE3 (CEREP, HTRF); conditions: for IC50: read-out: IC50 PDE3, recombinant PDE3A, substrate cAMP; for inhibition at 1 µM: read-out: PDE3 inhibition at 1000 nM
Chain of PDE3A (Q14432 whole entry): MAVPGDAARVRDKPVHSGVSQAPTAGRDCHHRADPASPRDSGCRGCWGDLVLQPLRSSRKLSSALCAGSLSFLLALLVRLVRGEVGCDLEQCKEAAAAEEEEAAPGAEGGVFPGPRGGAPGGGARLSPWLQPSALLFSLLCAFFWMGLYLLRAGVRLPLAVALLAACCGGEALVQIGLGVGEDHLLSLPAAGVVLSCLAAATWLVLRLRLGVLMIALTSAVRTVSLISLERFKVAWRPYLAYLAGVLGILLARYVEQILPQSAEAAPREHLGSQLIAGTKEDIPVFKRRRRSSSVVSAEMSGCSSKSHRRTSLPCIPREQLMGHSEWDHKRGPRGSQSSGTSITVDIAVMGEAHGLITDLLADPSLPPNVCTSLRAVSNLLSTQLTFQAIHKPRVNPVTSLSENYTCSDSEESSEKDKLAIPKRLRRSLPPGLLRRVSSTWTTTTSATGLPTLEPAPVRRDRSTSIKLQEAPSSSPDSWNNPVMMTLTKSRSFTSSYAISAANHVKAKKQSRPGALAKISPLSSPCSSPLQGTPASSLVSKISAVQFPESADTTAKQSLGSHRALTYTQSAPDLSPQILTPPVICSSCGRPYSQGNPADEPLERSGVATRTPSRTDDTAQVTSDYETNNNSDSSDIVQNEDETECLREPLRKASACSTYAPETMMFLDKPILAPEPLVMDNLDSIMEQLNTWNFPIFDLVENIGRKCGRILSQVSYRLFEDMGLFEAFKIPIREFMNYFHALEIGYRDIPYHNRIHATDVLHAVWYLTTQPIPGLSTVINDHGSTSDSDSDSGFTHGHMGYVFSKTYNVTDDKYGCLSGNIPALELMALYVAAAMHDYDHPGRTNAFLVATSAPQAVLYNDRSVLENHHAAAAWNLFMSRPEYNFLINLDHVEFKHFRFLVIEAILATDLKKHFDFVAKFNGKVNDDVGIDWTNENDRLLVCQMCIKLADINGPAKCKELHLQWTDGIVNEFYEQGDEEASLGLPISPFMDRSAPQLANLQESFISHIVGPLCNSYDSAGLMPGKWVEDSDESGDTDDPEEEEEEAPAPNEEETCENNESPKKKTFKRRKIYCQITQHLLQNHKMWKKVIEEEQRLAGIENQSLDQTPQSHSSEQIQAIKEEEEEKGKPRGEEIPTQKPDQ
From the text: Evaluation of the Effect of the Compounds of the Invention on the Activity of the Enzyme PDE3

tumour cell line HeLa = assay: Cell proliferation, 14C-thymidine incorporation, HeLa; format: cell-based
From the text: Measurement of the Cell Proliferation

Aurora B/Incenp = Aurora B/Incenp (Homo sapiens (Human), UniProt Q96GD4); assay: Aurora B/Incenp kinase activity, radioactive 33P incorporation into NuMA fragment
Chain of Aurora B/Incenp (Q96GD4 whole entry, the tested form may be a part): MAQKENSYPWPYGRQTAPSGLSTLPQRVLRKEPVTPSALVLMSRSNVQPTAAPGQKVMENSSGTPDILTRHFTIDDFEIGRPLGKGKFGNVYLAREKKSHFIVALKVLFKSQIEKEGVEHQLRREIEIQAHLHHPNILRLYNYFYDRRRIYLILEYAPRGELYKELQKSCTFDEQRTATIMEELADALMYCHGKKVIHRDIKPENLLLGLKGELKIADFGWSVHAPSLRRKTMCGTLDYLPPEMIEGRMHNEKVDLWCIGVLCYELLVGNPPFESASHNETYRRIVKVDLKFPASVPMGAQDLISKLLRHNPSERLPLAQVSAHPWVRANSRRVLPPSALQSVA
Chain of Aurora B/Incenp (Q9NQS7 821-918 partner): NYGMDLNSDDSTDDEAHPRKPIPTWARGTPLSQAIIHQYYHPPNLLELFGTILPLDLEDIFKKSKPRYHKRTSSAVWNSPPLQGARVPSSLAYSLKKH
Experimental: (§3) The kinase activity is measured by a radioactive assay of the amount of radioactive phosphate (^33P) incorporated into a fragment of the protein NuMA (Nuclear Mitotic Apparatus protein) after 30 minutes of incubation at 37° C. […] In each plate, there are eight control wells: four positive controls (maximum kinase activity), for which measurement is made in the presence of enzyme and substrate and in the absence of compound of the invention, and four negative controls (background) for which measurement is made in the absence of enzyme, substrate and test compound.
The two proteins form a complex which is called Aurora B/Incenp. […] This fragment is used as substrate.

HCT116 [2] = conditions: read-out: IC50 HCT116; HCT116, 96 hours treatment
Experimental: (§4) The cell proliferation is estimated by the amount of ^14C-thymidine incorporated in the cells.
(§5) D0: the cells are seeded in 96-well Cytostar plates in 180 μL of culture medium. The plates are then placed in an incubator at 37° C., 5% CO2 for four hours. The test products are then added in a volume of 10 μL per well, starting from a 20× solution. This solution contains 2% of DMSO in the culture medium. The final concentration of DMSO is therefore 0.1%. The plates are then placed in an incubator at 37° C./5% CO2 for 72 hours. D3: after 72 hours, 10 μL per well of ^14C-thymidine at 10 μCi/mL in the culture medium are added. The plates are then placed in an incubator at 37° C., 5% CO2 for 24 hours. D4: The incorporation of ^14C thymidine is measured on a Micro-Beta radioactivity counter (Perkin-Elmer) after this 24-hour, “pulse” period. The total time of treatment of the cells with the test product is 96 hours.
(§6) The percentage inhibitions IC50 are calculated in Excel using the following formula:
(§7) [formula] X=Measurement for the Sample CC=Cell Control Blank=Measurement in the wells without cells

[3] = Metabolism in the presence of murine microsomal liver fractions; format: in vitro ADME; conditions: percentage disappearance, 5 μM, 20 minutes; for Mouse microsome: 1 mg/ml proteins, NADPH
Experimental: (§1) Evaluation of the Metabolism in the Presence of Microsomal Preparations of Human and Murine Livers.
(§2) The compounds of the invention (5 μM) are incubated at physiological temperature over human and murine microsomal liver fractions (1 mg/ml of proteins), diluted in a phosphate buffer, in the presence of bovine serum albumin (1 mg/ml BSA), and the reduced form of nicotinamide adenine dinucleotide phosphate (1 mM NADPH). To terminate incubation, four volumes of acetonitrile containing corticosterone as internal standard (IS) are added. The samples are centrifuged and the supernatants are analysed by liquid chromatography/tandem mass spectrometry coupling (LC/MS-MS). The LC/MS-MS analysis is performed on a QTRAP API4000 mass spectrometer (Sciex) equipped with an 1100 series chromatography system (Agilent) and a Pal CTC automatic injector. The data are acquired and analysed using Analyst 1.4.1 software. The samples are separated on a 3 μm C18 Polaris column, eluted at a flow rate of 0.7 ml/min with a gradient from acetonitrile (solvent B) into water containing 0.1% formic acid (solvent A). The elution programme is composed of the gradient from 20 to 90% of solvent B in 2 minutes, an isocratic stage at 90% of solvent B, for 0.9 minute, and a return to the initial conditions in 0.1 minute. The area of the chromatographic peaks for the compound and for the internal standard are integrated using the Analyst-Classic algorithm. The metabolic stability of the products of the invention is estimated by comparing the integration ratios (ion currents of the compounds/ion current IS) measured after 0 minute (t0) and 20 minutes (t20) of incubation. The metabolic stability is then expressed as a percentage disappearance in accordance with the following formula: Metabolism %=(ratio of peaks at t0−ratio of peaks at t20)/ratio of peaks at t0

[4] = Metabolism in the presence of human microsomal liver fractions; format: in vitro ADME; conditions: percentage disappearance, 5 μM, 20 minutes; for Human microsome: 1 mg/ml proteins, NADPH
Experimental: as §1, §2

[5] = Chemical stability in various media (HPLC); format: physicochemical; conditions: 100 μM, 20° C., 48 hours
Experimental: Measurement of the Chemical Stability of the Compounds
The compounds are diluted in the media under study at a final concentration of 100 μM, by dilution of a 10 mM stock solution in DMSO. The solutions are stored at 20° C. for a total time of 48 hours, and the concentration of the compounds under study is measured over time (t=0, 1, 6, 12, 24 and 48 hours) by HPLC. HPLC analysis is carried out with an Agilent system 1100 instrument equipped with a diode array detector on a Luna 018 column, 30×4.6 mm, 3 μm (Phenomenex) which is eluted with a gradient from acetonitrile (solvent B) into water containing 0.5% (v/v) of formic acid (solvent A) at a flow rate of 1.5 ml/min and a temperature of 25° C. The elution programme consists of a gradient from 10 to 90% solvent B in 5 minutes, followed by an isocratic stage of one minute at 90% of solvent B, and return to the initial conditions over one minute. The concentration of the products under study is estimated from the height and area of the characteristic peak of the product under study on a chromatogram at the maximum wavelength of each product. The area and the height measured at each time of sampling are related to the area and height obtained for the sample at time 0. When degradation is observed, a half-life is measured from the resulting time-concentration curve.

Aurora A = Aurora A (Homo sapiens (Human), UniProt O14965); assay: Aurora A kinase activity, radioactive 33P incorporation into NuMA fragment
Chain of Aurora A (O14965 whole entry, the tested form may be a part): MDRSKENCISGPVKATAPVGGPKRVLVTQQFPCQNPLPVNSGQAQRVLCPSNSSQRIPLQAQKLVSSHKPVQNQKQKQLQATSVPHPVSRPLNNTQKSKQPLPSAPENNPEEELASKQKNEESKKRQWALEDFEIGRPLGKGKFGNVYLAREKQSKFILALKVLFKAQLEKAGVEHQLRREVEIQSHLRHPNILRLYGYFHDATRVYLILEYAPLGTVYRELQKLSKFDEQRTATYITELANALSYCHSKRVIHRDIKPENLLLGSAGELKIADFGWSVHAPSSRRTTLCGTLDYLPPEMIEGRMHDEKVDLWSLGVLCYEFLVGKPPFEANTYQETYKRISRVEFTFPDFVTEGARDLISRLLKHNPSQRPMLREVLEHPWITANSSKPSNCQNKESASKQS
Experimental: as §3
The recombinant human enzyme Aurora A used is expressed in entire form with a poly-Histidine tag in N-terminal position and is produced in E. coli.

HCT116 [6] = assay: cells; conditions: Homo sapiens, HCT-116, 96 h, read-out: IC50 HCT116
Experimental: as §4, §5, §6, §7

[7] = Homo sapiens, 96 hours treatment, read-out: IC50 HeLa (converted)
[8] = Homo sapiens, 96 h, read-out: IC50 HeLa
[9] = read-out: IC50 Aurora A, 10 nM Aurora A, 1 μM ATP, 500 nM NuMA, 30 min at 37° C.

IC50 (tumour cell line HeLa; [7]) [nM]	IC50 (Aurora B/Incenp) [nM]	Compound	Mouse microsome [3] [%]	Human microsome [4] [%]	IC50 (tumour cell line HeLa; [8]) [nM]	also measured
		CCOC(=O)c1[nH]cc2c1NC1=C(C(=O)CCC1)C2c1cccc(Oc2nc3ccccc3[nH]2)c1 (stereo not shown) [Example 2, ethyl 8-oxo-9-[3-(1H-benzimidazol-2-yloxy)phenyl]-4,5,6,7,8,9-hexahydro-2H-pyrrole[3,4-b]quinoline-3-carboxylate]	50	32		Intrinsic clearance measured in the presence of human hepatocytes [1]: 0.121 (average of 5 determinations obtained with 5 ml · h^−1 · 10^−6 cells; IC50 (PDE3A): 4000 nM; IC50 (tumour cell line HeLa; 96 hours treatment, read-out: IC50 HeLa (converted)): 67 nM; IC50 (Aurora B/Incenp; read-out: IC50 Aurora B/Incenp): 1 nM; IC50 (HCT116 [2]): 20 nM; Metabolism measured in the presence of murine microsomal fraction [3]: 50%; Metabolism measured in the presence of human microsomal fraction [4]: 32%; Chemical stability, HCl 0.05N 50/50 water/acetonitrile [5]: stable; Chemical stability, NaOH 0.05N 50/50 water/acetonitrile [5]: stable; Chemical stability, Phosphate buffer 25 mM pH = 7.4 50/50 water/acetonitrile [5]: stable; Chemical stability, Phosphate buffer 25 mM pH = 7.4 + 1% 2-mercaptoethanol 50/50 water/acetonitrile [5]: stable; Chemical stability, Phosphate buffer 25 mM pH = 7.4 + 1% benzylamine 50/50 water/acetonitrile [5]: stable
430	4	CCOC(=O)c1[nH]cc2c1NC1=C(C(=O)CC(C)(C)C1)C2c1cccc(Oc2nc3ccccc3[nH]2)c1 (stereo not shown) [Example 7]	96	65		IC50 (Aurora A): 3 nM
6860	21	CCOC(=O)c1[nH]cc2c1NC1=C(C(=O)CC(C)(C)C1)C2c1cccc(Sc2nc3ccccc3[nH]2)c1 (stereo not shown) [Example 8]	84	80		IC50 (Aurora A): 102 nM
20	10	CCOC(=O)c1[nH]cc2c1NC1=C(C(=O)CCC1)C2c1ccc(Sc2nc3cccc(OC)c3[nH]2)o1 (stereo not shown) [Example 13]	74	53		inhibition at 1 µM (PDE3A): 93%
6690	9	CC1(C)CC(=O)C2=C(C1)Nc1n[nH]cc1C2c1cccc(Oc2nc3ccccc3[nH]2)c1 (stereo not shown) [Example 10]				IC50 (Aurora A; [9]): 22 nM
9630	6	O=C1CCCC2=C1C(c1cccc(Oc3nc4ccccc4[nH]3)c1)c1c[nH]nc1N2 (stereo not shown) [Example 5]				IC50 (Aurora A; [9]): 23 nM
		CCOC(=O)c1[nH]cc2c1NC1=C(C(=O)CCC1)[C@@H]2c1ccc(Sc2nc3ccccc3[nH]2)o1 [Example 12]	81	75	16	IC50 (HCT116 [6]): 1 nM; Intrinsic clearance measured in the presence of human hepatocytes [1]: 0.29 (average of 3 determinations obtained with 3 ml · h^−1 · 10^−6 cells; IC50 (PDE3A): 68 nM; Metabolism measured in the presence of murine microsomal fraction [3]: 81%; Metabolism measured in the presence of human microsomal fraction [4]: 75%; Chemical stability, HCl 0.05N 50/50 water/acetonitrile [5]: stable; Chemical stability, NaOH 0.05N 50/50 water/acetonitrile [5]: stable; Chemical stability, Phosphate buffer 25 mM pH = 7.4 50/50 water/acetonitrile [5]: stable; Chemical stability, Phosphate buffer 25 mM pH = 7.4 + 1% 2-mercaptoethanol 50/50 water/acetonitrile [5]: unstable; Chemical stability, Phosphate buffer 25 mM pH = 7.4 + 1% benzylamine 50/50 water/acetonitrile [5]: stable

Compound	IC50 (tumour cell line HeLa; [7]) [nM]	IC50 (Aurora B/Incenp) [nM]	Mouse microsome [3] [%]	Human microsome [4] [%]	IC50 (tumour cell line HeLa; [8]) [nM]	also measured
CCOC(=O)c1[nH]cc2c1NC1=C(C(=O)CCC1)C2c1cccc(Sc2nc3ccccc3[nH]2)c1 (stereo not shown) [Example 4]		6	67	77	9660	
CCOC(=O)c1[nH]cc2c1NC1=C(C(=O)CCC1)C2c1cccc(Oc2nc3ccccc3[nH]2)c1 (single isomer, unassigned) [Example 3, ethyl 8-oxo-9-[3-(1H-benzimidazol-2-yloxy)phenyl]-4,5,6,7,8,9-hexahydro-2H-pyrrolo[3,4-b]quinoline-3-carboxylate]		900			> 10000	
CCOC(=O)c1[nH]cc2c1NC1=C(C(=O)CCC1)C2c1cccc(Oc2nc3ccccc3[nH]2)c1 (racemic) [Example 1, ethyl 8-oxo-9-[3-(1H-benzimidazol-2-yloxy)phenyl]-4,5,6,7,8,9-hexahydro-2H-pyrrolo[3,4-b]quinoline-3-carboxylate]		4	31	37	205	inhibition at 1 µM (PDE3A): 78%
O=C1CNCC2=C1C(c1cccc(Oc3nc4ccccc4[nH]3)c1)c1c[nH]nc1N2 (stereo not shown) [Example 6]		13			> 10000	
